Source: patent US20190358369A1, “Drug releasing coatings for medical devices and methods of making same” (BIOTRONIK AG, priority 2016, published 2019)
Read-outs that look alike come from different tables or passages of the source.

How the values were obtained:
[1] = Porcine Coronary Arteries, from US 2014/0046254, cited from earlier work
[2] = biological target: bovine serum albumin (BSA) (Bos taurus, UniProt P02769); experiment: Albumin binding by ammonium sulfate precipitation and LCMS; format: in vitro ADME; details: bovine serum albumin (BSA) solution, 10 uM drug, 1.4 mg/mL BSA in normal saline, 30 minutes ambient, supernatant, average of four separate days
Chain of bovine serum albumin (BSA) (P02769 25-607): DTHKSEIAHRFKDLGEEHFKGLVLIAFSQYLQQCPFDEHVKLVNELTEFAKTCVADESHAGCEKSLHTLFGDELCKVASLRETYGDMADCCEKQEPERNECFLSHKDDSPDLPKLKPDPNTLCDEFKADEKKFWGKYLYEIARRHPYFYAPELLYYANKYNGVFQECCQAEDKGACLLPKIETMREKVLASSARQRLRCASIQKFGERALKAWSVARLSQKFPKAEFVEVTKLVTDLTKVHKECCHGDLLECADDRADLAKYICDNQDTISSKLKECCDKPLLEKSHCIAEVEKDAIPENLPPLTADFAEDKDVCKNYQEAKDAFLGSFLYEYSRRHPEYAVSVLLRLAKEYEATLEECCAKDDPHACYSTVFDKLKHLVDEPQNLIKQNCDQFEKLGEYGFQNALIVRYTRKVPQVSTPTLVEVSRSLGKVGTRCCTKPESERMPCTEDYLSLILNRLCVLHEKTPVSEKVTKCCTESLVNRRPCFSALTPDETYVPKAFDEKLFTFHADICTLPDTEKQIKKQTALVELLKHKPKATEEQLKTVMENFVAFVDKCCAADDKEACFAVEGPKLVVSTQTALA
Procedure: Sirolimus-albumin binding has previously been reported. […] The drug spiked BSA solutions were mixed by inversion and allowed to equilibrate at ambient temperature for 30 minutes to allow drug binding to the albumin protein. 826 mg ammonium sulfate was next added to each sample and mixed by gentle inversion until the salt had completely dissolved and precipitate formed. Samples were then vortexed for 20 seconds then centrifuged for 6.5 minutes at 7200×g. To both supernatant and separated precipitate 0.750 mL methanol and 0.250 mL acetonitrile containing internal standard was added to each sample. Samples were tested for drug content by LCMS where the supernatant amount represents unbound drug and the precipitate amount the bound drug. Recovery verifiction tests were performed as above but using solutions of saline plus drug without BSA.
Values reported are the average of a separate test on each of four separate days.

CO[C@H]1C[C@@H]2CC[C@@H](C)[C@@](O)(O2)C(=O)C(=O)N2CCCC[C@H]2C(=O)O[C@H]([C@H](C)C[C@@H]2CC[C@@H](OCCO)[C@H](OC)C2)CC(=O)[C@H](C)/C=C(\C)[C@@H](O)[C@@H](OC)C(=O)[C@H](C)C[C@H](C)/C=C/C=C/C=C/1C [US 2014/0046254 Everolimus, Everolimus]
Normalized Uptake (ng drug/mg tissue/μg drug on balloon) ([1]; 3 days): 0.02 ng/mg/µg

CO[C@H]1C[C@@H]2CC[C@@H](C)[C@@](O)(O2)C(=O)C(=O)N2CCCC[C@H]2C(=O)O[C@H]([C@H](C)C[C@@H]2CC[C@H](n3cnnn3)[C@H](OC)C2)CC(=O)[C@H](C)/C=C(\C)[C@@H](O)[C@@H](OC)C(=O)[C@H](C)C[C@H](C)/C=C/C=C/C=C/1C [US 2014/0046254 Zotarolimus, Zotarolimus]
Normalized Uptake (ng drug/mg tissue/μg drug on balloon) ([1]; 7 days): 0.04 ng/mg/µg

CO[C@H]1C[C@@H]2CC[C@@H](C)[C@@](O)(O2)C(=O)C(=O)N2CCCC[C@H]2C(=O)O[C@H]([C@H](C)C[C@@H]2CC[C@@H](O)[C@H](OC)C2)CC(=O)[C@H](C)/C=C(\C)[C@@H](O)[C@@H](OC)C(=O)[C@H](C)C[C@H](C)/C=C/C=C/C=C/1C [Sirolimus]
fraction unbound at 30 min, 10 uM [2]: 0.062
